From US20060264460A1 (Wyeth, priority 2005, published 2006)

biological target: T1, human Cot/Tpl2 kinase (Homo sapiens, UniProt P41279); assay: Tpl2/Cot kinase assay: GST-MEK1 phosphorylation detected by ELISA (DELFIA Eu); assay type: biochemical; settings: Tpl2/Cot kinase, GST-MEK1 substrate, 50 uM ATP
T1 construct: human Cot/Tpl2 kinase construct encoding residues 30-398; 6His (N); made in house; host or cells: Sf9 insect cells, baculovirus system (BD Biosciences)
Outline: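 Substrate phosphorylation (GST-MEK1 Ser217/221) quantified by DELFIA europium ELISA, yielding IC50 values. Reaction: 1 h at 30° C, pH 7.2 MOPS buffer, 50 uM ATP, 35 nM GST-MEK1, 0.4 nM monomeric His-Tpl2 purified from Sf9 cells, compounds at 1% final DMSO; stopped with EDTA.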

T1 sequence (P41279 30-398): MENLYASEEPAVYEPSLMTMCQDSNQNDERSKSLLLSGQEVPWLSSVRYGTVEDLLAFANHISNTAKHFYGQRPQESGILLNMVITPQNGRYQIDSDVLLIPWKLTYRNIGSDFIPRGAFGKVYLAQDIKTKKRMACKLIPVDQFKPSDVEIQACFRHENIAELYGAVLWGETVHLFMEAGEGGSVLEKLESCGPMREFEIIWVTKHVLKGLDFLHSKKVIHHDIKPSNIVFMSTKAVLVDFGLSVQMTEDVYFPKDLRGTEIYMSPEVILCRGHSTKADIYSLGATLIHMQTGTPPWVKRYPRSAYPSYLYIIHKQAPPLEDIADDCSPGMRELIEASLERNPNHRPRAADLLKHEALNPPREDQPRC

IC50 [nM]	Structure (SMILES)
1.3	N#Cc1cnc2c(Br)cc(NCc3cn(CCc4ccncc4)nn3)cc2c1Nc1ccc(F)c(Cl)c1 [Example 919]
860	CN(C)CCNCC(=O)N1CCCC(CNc2cc(Cl)c3ncc(C#N)c(Nc4ccc(F)c(Cl)c4)c3c2)C1 (stereo not drawn) [Example 920]

same assay, conditions: Tpl2/Cot kinase, GST-MEK1 substrate, 50 uM ATP, 1 h at 30° C.; Table 2

IC50 [nM]	Structure (SMILES)
540	N#Cc1cnc2c(Cl)cc(NCC3CCCN(C(=O)CNCc4cccnc4)C3)cc2c1Nc1ccc(F)c(Cl)c1 (stereo not drawn) [Example 921]
1690	N#Cc1cnc2c(Cl)cc(NCC3CCCN(C(=O)CNCc4ccccn4)C3)cc2c1Nc1ccc(F)c(Cl)c1 (stereo not drawn) [Example 922]
560	N#Cc1cnc2c(Cl)cc(NCC3CCCN(C(=O)CNc4cccnc4)C3)cc2c1Nc1ccc(F)c(Cl)c1 (stereo not drawn) [Example 923]
1320	N#Cc1cnc2c(Cl)cc(NCC3CCCN(C(=O)CCl)C3)cc2c1Nc1ccc(F)c(Cl)c1 (stereo not drawn) [Example 924]
73	CC(C)(C)OC(=O)N1CCC(n2cc(CNc3cc(Cl)c4ncc(C#N)c(Nc5ccc(F)c(Cl)c5)c4c3)nn2)CC1 [Example 925]
7	CN(C)C(=O)N1CCC(n2cc(CNc3cc(Cl)c4ncc(C#N)c(Nc5ccc(F)c(Cl)c5)c4c3)nn2)CC1 [Example 929]
3.3	CC(=O)N1CCC(n2cc(CNc3cc(Cl)c4ncc(C#N)c(Nc5ccc(F)c(Cl)c5)c4c3)nn2)CC1 [Example 930]
18.9	CCNC(=O)N1CCC(n2cc(CNc3cc(Cl)c4ncc(C#N)c(Nc5ccc(F)c(Cl)c5)c4c3)nn2)CC1 [Example 931]
410	N#Cc1cnc2c(Cl)cc(NC[C@H]3C[C@H](O)CO3)cc2c1Nc1ccc(F)c(Cl)c1 [Example 932]
1990	C[C@H](CNc1ccccn1)Nc1cc(Cl)c2ncc(C#N)c(Nc3ccc(F)c(Cl)c3)c2c1 [Example 933]
18	N#Cc1cnc2c(Cl)cc(NCc3cn(C4CCOC4=O)nn3)cc2c1Nc1ccc(F)c(Cl)c1 (stereo not drawn) [Example 934]
> 3000	N#Cc1cnc2c(Cl)cc(NC[C@H]3C[C@H](OCc4ccccc4)CO3)cc2c1Nc1ccc(F)c(Cl)c1 [Example 935]
130	N#Cc1cnc2c(Cl)cc(NCc3cn(CCC4CCN(CC5CC5)CC4)nn3)cc2c1Nc1ccc(F)c(Cl)c1 [Example 936]
150	N#Cc1cnc2c(Cl)cc(NCc3cn(CCC4CCN(C5CCC5)CC4)nn3)cc2c1Nc1ccc(F)c(Cl)c1 [Example 937]
200	N#Cc1cnc2c(Cl)cc(NCc3cn(CCC4CCN(C5CCCC5)CC4)nn3)cc2c1Nc1ccc(F)c(Cl)c1 [Example 938]
> 3000	N#Cc1cnc2c(Cl)cc(NC[C@H]3C[C@H](OCc4cccnc4)CO3)cc2c1Nc1ccc(F)c(Cl)c1 [Example 939]
150	N#Cc1cnc2c(Cl)cc(OCc3cn(C4CCNCC4)nn3)cc2c1Nc1ccc(F)c(Cl)c1 [Example 940]
520	CC(C)(C)OC(=O)N1CCC(n2cc(COc3cc(Cl)c4ncc(C#N)c(Nc5ccc(F)c(Cl)c5)c4c3)nn2)CC1 [Example 941]
19	CC(C)N1CCC[C@H]1CCn1cc(CNc2cc(Br)c3ncc(C#N)c(Nc4ccc(F)c(Cl)c4)c3c2)nn1 [Example 942]
> 3000	CC(C)(C)OC(=O)N1CCC(n2cc(CNc3cc(Cl)c4ncc(C#N)c(NC5CCCC5)c4c3)nn2)CC1 [Example 943]
> 3000	CN1CCCC1CCn1cc(CNc2cc(Cl)c3ncc(C#N)c(NC4CCCC4)c3c2)nn1 (stereo not drawn) [Example 944]
630	N#Cc1cnc2c(Cl)cc(NCc3cn(CCN4CCCCCC4)nn3)cc2c1NC1CCCC1 [Example 945]
590	CN(C)CCn1cc(CNc2cc(Cl)c3ncc(C#N)c(NC4CCCC4)c3c2)nn1 [Example 946]

IC50 [nM]	Structure (SMILES)
700	CN1CCCC1CCn1cc(CNc2cc(Cl)c3ncc(C#N)c(NC4CCCCCC4)c3c2)nn1 (stereo not drawn) [Example 947]
2310	CC(C)(C)OC(=O)N1CCC(n2cc(CNc3cc(Cl)c4ncc(C#N)c(NC5CCCCCC5)c4c3)nn2)CC1 [Example 948]
460	N#Cc1cnc2c(Cl)cc(NCc3cn(CCN4CCCCCC4)nn3)cc2c1NC1CCCCCC1 [Example 949]
620	CN(C)CCn1cc(CNc2cc(Cl)c3ncc(C#N)c(NC4CCCCCC4)c3c2)nn1 [Example 950]
460	CN1CCCC1CCn1cc(CNc2cc(Cl)c3ncc(C#N)c(NC4CCC4)c3c2)nn1 (stereo not drawn) [Example 951]
1130	CN1CCCC1CCn1cc(CNc2cc(Cl)c3ncc(C#N)c(NC4CCOCC4)c3c2)nn1 (stereo not drawn) [Example 952]
810	CC(C)(C)OC(=O)N1CCC(n2cc(CNc3cc(Cl)c4ncc(C#N)c(NC5CCC5)c4c3)nn2)CC1 [Example 953]
520	N#Cc1cnc2c(Cl)cc(NCc3cn(CCN4CCCCC4)nn3)cc2c1NC1CCC1 [Example 954]
440	N#Cc1cnc2c(Cl)cc(NCc3cn(CCN4CCCCCC4)nn3)cc2c1NC1CCC1 [Example 955]
730	CN(C)CCn1cc(CNc2cc(Cl)c3ncc(C#N)c(NC4CCC4)c3c2)nn1 [Example 956]
> 3000	CC(C)(C)OC(=O)N1CCN(CCn2cc(CNc3cc(Cl)c4ncc(C#N)c(Nc5ccc(F)c(Cl)c5)c4c3)nn2)CC1 [Example 957]
310	N#Cc1cnc2c(Cl)cc(NCc3cn(CCN4CCNCC4)nn3)cc2c1Nc1ccc(F)c(Cl)c1 [Example 958]
92	CC(=O)N1CCN(CCn2cc(CNc3cc(Cl)c4ncc(C#N)c(Nc5ccc(F)c(Cl)c5)c4c3)nn2)CC1 [Example 959]
130	CC(C)(C)CC(=O)N1CCN(CCn2cc(CNc3cc(Cl)c4ncc(C#N)c(Nc5ccc(F)c(Cl)c5)c4c3)nn2)CC1 [Example 960]
31	CN(C)C(=O)N1CCN(CCn2cc(CNc3cc(Cl)c4ncc(C#N)c(Nc5ccc(F)c(Cl)c5)c4c3)nn2)CC1 [Example 961]
23	CCNC(=O)N1CCN(CCn2cc(CNc3cc(Cl)c4ncc(C#N)c(Nc5ccc(F)c(Cl)c5)c4c3)nn2)CC1 [Example 962]
650	CN1CCN(CCn2cc(CNc3cc(Cl)c4ncc(C#N)c(Nc5ccc(F)c(Cl)c5)c4c3)nn2)CC1 [Example 963]
260	CCN1CCN(CCn2cc(CNc3cc(Cl)c4ncc(C#N)c(Nc5ccc(F)c(Cl)c5)c4c3)nn2)CC1 [Example 964]
430	CC(C)N1CCN(CCn2cc(CNc3cc(Cl)c4ncc(C#N)c(Nc5ccc(F)c(Cl)c5)c4c3)nn2)CC1 [Example 965]
150	N#Cc1cnc2c(Cl)cc(NCc3cn(CCN4CCN(CC5CC5)CC4)nn3)cc2c1Nc1ccc(F)c(Cl)c1 [Example 966]
460	CN1CCCC1CCn1cc(CNc2ccc3ncc(C#N)c(NC4CCCCC4)c3c2)nn1 (stereo not drawn) [Example 967]
670	CC(C)(C)OC(=O)N1CCC(n2cc(CNc3ccc4ncc(C#N)c(NC5CCCCC5)c4c3)nn2)CC1 [Example 968]
380	CN(C)CCn1cc(CNc2ccc3ncc(C#N)c(NC4CCCCC4)c3c2)nn1 [Example 969]

IC50 [nM]	Structure (SMILES)
510	N#Cc1cnc2ccc(NCc3cn(CCN4CCCCCC4)nn3)cc2c1NC1CCCCC1 [Example 970]
> 3000	CN1CCCC1CCn1cc(CNc2cc(Cl)c3ncc(C#N)c(NC4CCC5(CCCCC5)CC4)c3c2)nn1 (stereo not drawn) [Example 971]
> 3000	CN1CCCC1CCn1cc(CNc2cc(Cl)c3ncc(C#N)c(NC4CCCC5(CCCC5)C4)c3c2)nn1 (stereo not drawn) [Example 972]
> 3000	CC(C)(C)OC(=O)N1CCC(n2cc(CNc3cc(Cl)c4ncc(C#N)c(NC5CCC6(CCCCC6)CC5)c4c3)nn2)CC1 [Example 973]
> 3000	CC(C)(C)OC(=O)N1CCC(n2cc(CNc3cc(Cl)c4ncc(C#N)c(NC5CCCC6(CCCC6)C5)c4c3)nn2)CC1 (stereo not drawn) [Example 974]
> 3000	N#Cc1cnc2c(Cl)cc(NCc3cn(CCN4CCCCCC4)nn3)cc2c1NC1CCC2(CCCCC2)CC1 [Example 975]
> 3000	N#Cc1cnc2c(Cl)cc(NCc3cn(CCN4CCCCCC4)nn3)cc2c1NC1CCCC2(CCCC2)C1 (stereo not drawn) [Example 976]
130	N#Cc1cnc2ccc(NCc3cn(C4CCNCC4)nn3)cc2c1NC1CCCCC1 [Example 977]
> 3000	N#Cc1cnc2c(Cl)cc(NCc3cn(C4CCNCC4)nn3)cc2c1NC1CCC2(CCCCC2)CC1 [Example 978]
970	N#Cc1cnc2c(Cl)cc(NCc3cn(C4CCNCC4)nn3)cc2c1NC1CCCC2(CCCC2)C1 (stereo not drawn) [Example 979]
24	COC(=O)N1CCC(n2cc(CNc3cc(Cl)c4ncc(C#N)c(Nc5ccc(F)c(Cl)c5)c4c3)nn2)CC1 [Example 980]
610	COC(=O)N1CCC(n2cc(CN(C(=O)OC)c3cc(Cl)c4ncc(C#N)c(Nc5ccc(F)c(Cl)c5)c4c3)nn2)CC1 [Example 981]
31	N#Cc1cnc2c(Cl)cc(NCc3cn(C4CCN(C(=O)OCCF)CC4)nn3)cc2c1Nc1ccc(F)c(Cl)c1 [Example 982]
> 3000	N#Cc1cnc2c(Cl)cc(N(Cc3cn(C4CCN(C(=O)OCCF)CC4)nn3)C(=O)OCCF)cc2c1Nc1ccc(F)c(Cl)c1 [Example 983]
1090	CN(C)CCn1cc(CNc2cc(Cl)c3ncc(C#N)c(NCC(F)(F)F)c3c2)nn1 [Example 984]
1410	N#Cc1cnc2c(Cl)cc(NCc3cn(CCN4CCCCC4)nn3)cc2c1NCC(F)(F)F [Example 985]
350	N#Cc1cnc2c(Cl)cc(NCc3cn(C4CCNCC4)nn3)cc2c1NC1CCC1 [Example 986]
1100	N#Cc1cnc2c(Cl)cc(NCc3cn(C4CCNCC4)nn3)cc2c1NC1CCOCC1 [Example 987]
> 3000	N#Cc1cnc2c(Cl)cc(NCc3cn(CCN4CCCCCC4)nn3)cc2c1Nc1ccc(Oc2ccccc2)cc1 [Example 988]
400	CC(C)(C)OC(=O)N1CCC(n2cc(CNc3cc(Cl)c4ncc(C#N)c(Nc5ccc(Oc6ccccc6)cc5)c4c3)nn2)CC1 [Example 989]
830	CN1CCCC1CCn1cc(CNc2cc(Cl)c3ncc(C#N)c(Nc4ccc(Oc5ccccc5)cc4)c3c2)nn1 (stereo not drawn) [Example 990]
